Measured values from patent US20220356163A1, “SMALL MOLECULE INHIBITORS OF Id PROTEINS” (MEMORIAL SLOAN KETTERING CANCER CENTER, priority 2019, published 2022).

How the values were obtained:
[1] = test system: HUVEC; test: HUVEC cell branching assay on Matrigel; format: cell-based, human; conditions: 0-40 μM, 18-20 hours, p<0.05
Procedure: HUVEC cell branching assays. For branching assays, 350 μL of Matrigel was loaded into each well of a 24-well plate on ice and incubate the plate for 30 minutes at 37° C. to allow the Matrigel to solidify. 80,000 HUVECs in 0.5 mL of EGM-2 medium with the indicated AGX concentration was plated on the solidified Matrigel. At 18-20 hours of incubation when the tube formation was peaked, media from the well was carefully removed and fixed with 10% buffered formalin for 15 minutes. Each well was washed with DPBS. The morphology of capillary like structures was visualized using an inverted microscope and photographed with a digital camera at 10× magnification. To quantify the tube network, Image J with the Angiogenesis Analyzer plugin (public domain Java-based image-processing program, reference: Carpentier G. ImageJ contribution: Angiogenesis Analyzer. ImageJ News. 2012) was installed and the analysis for the number of nodes, junctions, meshes and total branching length was performed as per the instruction. The statistical data analyses were performed using the Wilcoxon test.

[2] = test system: MDA-MB-361; test: MTT assay, MDA-MB-361; format: cell-based; conditions: MDA-MB-361, HER-2 +ve cell line, 24 hours
Source text: (§1) The 4T1 murine mammary tumor cell line and nine breast cancer cell lines representing the major breast cancer subtypes (ER+, HER2+, and TNBC) including MDA-MB-157, MDA-MB-436, MDA-MB-231, MDA-MB-453, MDA-MB-361, BT-474, SK-BR-3, MCF-7 and T47-D will be grown in RPMI or DMEM (Dulbecco's Modified Eagle Medium) media supplemented with 10% FBS (fetal bovine serum), 1% penicillin-streptomycin and 1% L-Glutamine. Patient derived xenograft cell lines BR7, BR11, and IBT will be established directly from breast cancer bone metastases specimens surgically resected from patients with informed consent. BR7 and BR11 specimens will be obtained from ER positive (HER2 negative and PR negative) metastatic breast cancer patients, while the IBT specimen will be obtained from a metastatic, triple negative breast cancer patient. Fresh tumor tissues will be quickly washed with ice cold PBS and minced into about 1-3 mm pieces in MEM medium (without FBS) using sterile razor blades. […] The cells will be treated with either 100 μM DMSO, AGX51, or a compound of the present technology such as AGX-A. The cell morphology and growth will be monitored daily for 1 week by microscopy for changes in morphology or cell death. […] Absorbance will then measured at 570 nm using a plate reader (Synergy 2, BioTek). […]

[3] = target: T1, ID1 (Homo sapiens, UniProt P41134); test: Ubiquitylation assay in HCT116 and U87 cells; format: cell-based; conditions: 60 μM AGX51 two hours, then MG132 six hours
T1 sequence (P41134 1-155): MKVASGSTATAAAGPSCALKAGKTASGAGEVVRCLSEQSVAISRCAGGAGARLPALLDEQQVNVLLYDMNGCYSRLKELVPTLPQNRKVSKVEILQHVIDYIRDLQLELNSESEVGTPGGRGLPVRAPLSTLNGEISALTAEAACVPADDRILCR
Procedure: Ubiquitylation assay. HCT116 cells were transfected with pcDNA3-ID1-Flag and pcDNA3-HA-Ubiquitin using lipofectamine 3000 (ThermoFisher). 36 hours after transfection, cells were treated with 60 μM AGX51 for two hours followed by 20 μM MG132 (EMD Millipore) for an additional six hours. After washing with ice-cold PBS twice, cells were lysed in 100 μL of TBS (50 mM Tris-HCl, pH 8.0, 150 mM NaCl) containing 2% SDS and boiled at 100° C. for 10 minutes. Lysates were diluted with 900 μL of TBS containing 1% NP40 and EDTA free protease inhibitor cocktail (Roche) and were cleared by centrifuge at 15,000 rpm for 15 minutes at 4° C. Immunoprecipitation was performed using 1 mg of cellular lysates with FLAG M2 affinity gel (Sigma, F2426). Ubiquitinylated proteins were analyzed by immunoblot using indicated antibodies.
Id proteins are degraded by the ubiquitin 26S proteasome system. Lasorella et al., Nat Rev Cancer, 14: 77-91 (2014). To determine if this degradation pathway mediated the effects of AGX51 on Id protein levels was then explored. HUVECs are difficult to transfect with expression constructs, so HCT116 cells were utilized for this assay. HCT116 cells were transfected with a construct expressing Flag-ID1 and then treated with 60 μM AGX51 for 2-24 hours (FIG. 3B). […]

[4] = test system: T47-D; test: MTT assay, T47-D; format: cell-based; conditions: ER +ve cell line, 24 hours
Source text: as §1

[5] = test system: PDX-IBT; test: MTT assay, PDX-IBT; format: cell-based; conditions: 24 h, PDX cell line, read-out: IC50 value after 24 hours of treatment
Source text: as §1

## CCC(=O)N(CCC(c1ccc2c(c1)OCO2)c1ccccc1OC)Cc1ccccc1 (racemic) [AGX51, N-(3-(benzo[d][1,3]dioxol-5-yl)-3-(2-methoxyphenyl)propyl)-N-benzylpropionamide]
[1]
  vascular branching (nodes, junctions, meshes, branch length): significantly impaired in a dose-dependent manner
[2]
  percentage at 60 μM (IC50 NA): NA (60 μM = 53%)
[3]
  ID1 polyubiquitylation: further increased ID1 polyubiquitylation
[4]
  percentage at 60 μM (IC50 NA): NA (60 μM = 65%)
[5]
  IC50: 12 µM
